Data from US9925166B2, “Methods of treating an overweight or obese subject” (Zafgen, Inc., priority 2008, dated 2018).
Several values for one entry are separate records, joined by “and”; a condition that tells them apart may be missing. Equal values may be shown once.

Legend:
MetAP-2 = target: T1, MetAP-2 (Mus musculus, UniProt O08663); assay: ELISA assay of MetAP-2 binding (free MetAP-2) in adipose tissue lysates of dosed diet-induced obese mice; conditions: fumagillin orally 3 mg/kg or 10 mg/kg; diet-induced obese mice; FIG. 1
T1 construct: from tissue; host or cells: adipose tissue of diet-induced obese mice
T1 sequence (O08663 whole entry): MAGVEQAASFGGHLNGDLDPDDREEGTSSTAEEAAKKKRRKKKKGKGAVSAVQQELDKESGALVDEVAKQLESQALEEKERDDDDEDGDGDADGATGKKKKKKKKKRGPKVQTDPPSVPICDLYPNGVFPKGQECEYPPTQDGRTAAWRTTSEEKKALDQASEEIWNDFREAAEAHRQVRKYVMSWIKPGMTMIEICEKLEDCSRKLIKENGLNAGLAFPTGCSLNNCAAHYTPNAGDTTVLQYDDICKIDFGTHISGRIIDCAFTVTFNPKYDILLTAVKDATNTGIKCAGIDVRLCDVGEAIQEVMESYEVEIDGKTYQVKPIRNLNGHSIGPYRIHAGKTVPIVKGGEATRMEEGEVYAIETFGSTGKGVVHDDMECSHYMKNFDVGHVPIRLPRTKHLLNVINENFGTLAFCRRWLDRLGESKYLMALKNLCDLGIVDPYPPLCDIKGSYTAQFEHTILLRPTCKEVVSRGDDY
Method: Diet-induced obese mice were orally (p.o.) administered fumagillin (3 mg/kg or 10 mg/kg; Medivet), subcutaneously administered (s.c.) TNP-470 (1 mg/kg, 3 mg/kg, 10 mg/kg, or 30 mg/kg; synthesized by standard semi-synthetic processes as described in European Patent EP 0 357 061), or administered a solution of 10% dimethyl sulfoxide (DMSO; control; Sigma-Aldrich). Mice were sacrificed and adipose tissue samples were obtained.
An ELISA assay of MetAP-2 binding was conducted with tissue lysates prepared from the adipose tissue samples. The MetAP-2 ELISA is a quantitative assay to determine the amount of free MetAP-2 in tissue or cell lysates, i.e., MetAP-2 not covalently bound to fumagillin or TNP-470. The assay takes advantage of the fact that biotinylated fumagillin can bind to the catalytic site of the MetAP-2 enzyme only if this site has not already been derivatized by fumagillin or TNP-470. The biotinylated MetAP-2-inhibitor complex was captured on a streptavidin-coated plate and detected with a rabbit anti-MetAP-2 antibody (Zymed Laboratories Inc.). Horseradish peroxidase-conjugated anti-rabbit immunoglobulin G (IgG) was added to detect the MetAP-2 antibody immobilized to the streptavidin-coated plate with its covalently bound biotinylated fumagillin. Tetramethylbenzidine (TMB) substrate was added and the reaction was stopped by addition of sulfuric acid. Analysis was performed by determining absorption at 450 nm. Human recombinant MetAP-2 (R&D Systems), pre-bound to biotinylated fumagillin, was used to generate a standard curve.

diet-induced obese mice [1] = assay: Weight loss study in diet-induced obese mice, oral gavage 28 days (Example 2); assay type: in vivo, C57BL/6NTac mice; conditions: for weight loss as a percentage of pre-study weight: 28 days, end of study
Method: The mice in this study were not genetically obese, but prior to and during the study, obesity was induced by a high-fat diet. Twelve week-old C57BL/6NTac mice, maintained on a 60% fat diet prior to and during the study, were separated into six groups, eight animals per group.
Fumagillin was administered to four of the diet-induced obese mice groups by oral gavage as a solution in 10% DMSO, at doses of 1 mg/kg/day, 3 mg/kg/day, 10 mg/kg/day and 30 mg/kg/day respectively, for 28 days. A fifth group received 10% DMSO vehicle-only (control) by oral gavage, and the sixth group received neither vehicle nor fumagillin (naïve). Body weight was measured on day 0 (pre-study) and subsequently on day 3, day 8, day 15, day 22, and day 29 of the study. Daily food consumption was also recorded.

diet-induced obese mice [2] = assay: 47-day weight and food intake study in diet-induced obese mice (Example 5); assay type: in vivo, C57BL/6NTac mice; conditions: 1 mg/kg/day oral gavage
Method: Mice were divided into two groups, a diet-induced obese group and a lean group (control). For the diet-induced obese group, C57BL/6NTac mice maintained prior to and during the study on a diet containing 60% fat on a kilocalorie basis were further divided into two groups, fifteen mice per group. Average body weight of these diet-induced obese mice was 40 g at the start of the study. […] Daily food consumption was also recorded.
Fumagillin was administered to one of the diet-induced obese mice groups by oral gavage as a solution in 10% DMSO, at dose of 1 mg/kg/day, for 47 days. The other diet-induced obese mice group and the lean mice group were not administered anything.

[3] = Plasma concentration after oral administration in a non-enterically coated capsule (Example 7); assay type: in vivo, Sprague-Dawley rats; conditions: 30 mg/kg capsule oral
Method: A study was undertaken to investigate absorption of fumagillin orally administered in a capsule. Five male Sprague-Dawley rats were fasted, and were then each orally administered a non-enterically coated capsule containing 30 mg/kg of fumagillin. […] (graphically illustrated as 0.17), 20 min. (graphically illustrated as 0.33), 30 min. […]

blood cells = assay: Complete blood analysis (CBC) after oral fumagillin in lean rats (Example 9); assay type: in vivo, Sprague-Dawley rats; conditions: for lymphocyte count / neutrophil count / white blood cell count: 3 mg/kg oral gavage on day 3 and day 9
Method: Male lean Sprague-Dawley rats were divided into two groups, ten rats per group. One group of rats received fumagillin by oral gavage as a solution in 10% DMSO, at dose of 3 mg/kg. Administration of fumagillin to this group of rats was performed on day 3 and day 9 of the study. The other group of rats was administered by oral gavage a solution of 10% DMSO/90% water (vehicle-only). Administration of vehicle to this group of rats was performed on day 3 and day 9 of the study. Blood samples were collected daily for complete blood analysis (CBC).

[4] = mouse, 33 mg/kg/day; Ingbar et al.; cited from earlier work

CO[C@@H]1[C@H](OC(=O)/C=C/C=C/C=C/C=C/C(=O)O)CC[C@]2(CO2)[C@H]1[C@@]1(C)O[C@@H]1CC=C(C)C [fumagillin]
binding to MetAP-2 in adipose tissue (MetAP-2): binds MetAP-2 in adipose tissue | neutrophil counts compared to vehicle-only mice (diet-induced obese mice [1]; 1 mg/kg and 3 mg/kg oral): decreased | weight loss as a percentage of pre-study weight (diet-induced obese mice [1]; 1 mg/kg/day oral gavage): 15% | weight loss as a percentage of pre-study weight (diet-induced obese mice [1]; 3 mg/kg/day oral gavage): 18% | neutrophil counts compared to vehicle-only mice (diet-induced obese mice [1]; 10 mg/kg and 30 mg/kg oral): increased | weight loss as a percentage of pre-study weight (diet-induced obese mice [1]; 10 mg/kg/day oral gavage): 21% | weight loss as a percentage of pre-study weight (diet-induced obese mice [1]; 30 mg/kg/day oral gavage): 33% | food consumption among dose groups (diet-induced obese mice [1]; 30 mg/kg/day oral, 30 day period): consuming the least amount of food | food consumption vs vehicle-only and naive mice (diet-induced obese mice [1]; 1-30 mg/kg/day oral, 30 day period): consumed less food | leukocytes, particularly lymphocytes (hematology) (diet-induced obese mice [1]; fumagillin dose groups, oral): decrease | platelets (diet-induced obese mice [1]; fumagillin dose groups, oral): No decrease | cholesterol levels (diet-induced obese mice [1]; fumagillin treatment, oral): reductions | serum glucose levels (diet-induced obese mice [1]; fumagillin treatment, oral): reductions | non-effective dose (diet-induced obese mice [1]; oral gavage, weight loss, not identified, concluded): below 1 mg/kg/day | effect on lean body mass (diet-induced obese mice [2]; 47 days, weight plateaued at weight of lean mice): without substantial reduction of lean body mass | average weight (diet-induced obese mice [2]; day seventeen (from 40 g on day 1)): 32 g | average weight (diet-induced obese mice [2]; maintained through day 47): approximately 32 g | amount of food consumed (diet-induced obese mice [2]; throughout 47 days): 2.2 g/day | ZGN-201 Conc. in Rat Plasma, individual animals ([3]; male rats 1-5, time point 0 hr): BQL (BQL: 1 ng/mL) | ZGN-201 Conc. in Rat Plasma, individual animals ([3]; male rats 1-5, time point 0.17 hr): BQL (BQL: 1 ng/mL) | ZGN-201 Conc. in Rat Plasma, individual animals ([3]; male rats 1-5, time point 0.33 hr, listed as ZGN-201): 5.3 ng/mL and 1.9 ng/mL and 1.6 ng/mL and 1.8 ng/mL and 5.2 ng/mL | ZGN-201 Conc. in Rat Plasma, individual animals ([3]; male rats 1-5, time point 0.5 hr, listed as ZGN-201): 14.3 ng/mL and 4.5 ng/mL and 3.6 ng/mL and 3 ng/mL and 11.4 ng/mL | ZGN-201 Conc. in Rat Plasma, individual animals ([3]; male rats 1-5, time point 1 hr, listed as ZGN-201): 36.1 ng/mL and 14.5 ng/mL and 8.9 ng/mL and 3.6 ng/mL and 117.9 ng/mL | ZGN-201 Conc. in Rat Plasma, individual animals ([3]; male rats 1-5, time point 2 hr, listed as ZGN-201): 81.2 ng/mL and 98.2 ng/mL and 125.4 ng/mL and 9.5 ng/mL and 156.4 ng/mL | ZGN-201 Conc. in Rat Plasma, individual animals ([3]; male rats 1-5, time point 8 hr, listed as ZGN-201): 36.6 ng/mL and 47.1 ng/mL and 141.3 ng/mL and 31.6 ng/mL and 116.8 ng/mL | absorption through the stomach ([3]; rats): poorly absorbed through the stomach | time after administration at which absorption is first observed ([3]; rats): 20 min | time of peak absorption after administration ([3]; rats): approximately 2 hrs | maximal concentration absorbed into the blood ([3]; rats, time point 2): approximately 100 ng/ml | concentration at 0.33 hr ([3]; male, Sprague-Dawley, rat, plasma, oral, 30 mg/kg, male rats, time point 0.33 hr, read-out: ZGN-201 Conc. in Rat Plasma, Mean): 3 ng/mL | concentration at 0.5 hr ([3]; male, Sprague-Dawley, rat, plasma, oral, 30 mg/kg, male rats, time point 0.5 hr, read-out: ZGN-201 Conc. in Rat Plasma, Mean): 7 ng/mL | concentration at 1 hr ([3]; male, Sprague-Dawley, rat, plasma, oral, 30 mg/kg, male rats, time point 1 hr, read-out: ZGN-201 Conc. in Rat Plasma, Mean): 36 ng/mL | concentration at 2 hr ([3]; male, Sprague-Dawley, rat, plasma, oral, 30 mg/kg, male rats, time point 2 hr, read-out: ZGN-201 Conc. in Rat Plasma, Mean): 94 ng/mL | concentration at 8 hr ([3]; male, Sprague-Dawley, rat, plasma, oral, 30 mg/kg, male rats, time point 8 hr, read-out: ZGN-201 Conc. in Rat Plasma, Mean): 75 ng/mL | lymphocyte count (blood cells; day 3): approximately 4000 lymphocytes/4 | neutrophil count (blood cells; day 3): approximately 650 neutrophils/4 | white blood cell count (blood cells; day 3): approximately 5000 white blood cells/4 | lymphocyte count (blood cells; day 9): approximately 3900 lymphocytes/4 | neutrophil count (blood cells; day 9): approximately 1100 neutrophils/4 | white blood cell count (blood cells; day 9): approximately 5200 white blood cells/4 | development of a blood disorder (blood cells; 3 mg/kg oral gavage, rats): do not result in development of a blood disorder | variation vs vehicle-only rats in white blood cell, lymphocyte and neutrophil count (blood cells; 3 mg/kg oral gavage, statistical analysis): not statistically significant | side-effect of administration (wasting) [4]: severe weight loss
